From patent US8952024B2, “Herbicidal pyrimidone derivatives” (E I du Pont de Nemours and Company, priority 2009, dated 2015)

Tests used:
Type in all cases: in vivo
[1] = system: bermudagrass (Cynodon dactylon); test: Test B pre-/postemergence plant response
Method in brief: (§1)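 Test compounds, formulated in a non-phytotoxic solvent mixture with surfactant, are applied to the soil surface (loam and sand blend) right after seeding, or sprayed over plants at the 1- to 4-leaf stage grown in peat moss/vermiculite medium. After 13 to 15 days under glasshouse conditions, each species is scored visually from 0 (no effect) to 100 (complete control) against controls.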

[2] = system: johnsongrass (Sorghum halepense); test: Test B pre-/postemergence plant response
Method in brief: as §1

corn (Zea mays) = test: Test B pre-/postemergence plant response
Method in brief: as §1

soybean (Glycine max) = test: Test B pre-/postemergence plant response
Method in brief: as §1

[3] = system: cocklebur (Xanthium strumarium); test: Test B pre-/postemergence plant response; settings: Postemergence
Method in brief: as §1

[4] = system: giant foxtail (Setaria faberii); test: Test B pre-/postemergence plant response
Method in brief: as §1

wild oat (Avena fatua) = test: Test B pre-/postemergence plant response
Method in brief: as §1

kochia (Kochia scoparia) = test: Test B pre-/postemergence plant response; settings: Postemergence; for Plant response rating, Kochia: scale 0 (no effect) to 100 (complete control)
Method in brief: as §1

[5] = system: green foxtail (Setaria viridis); test: Test B pre-/postemergence plant response
Method in brief: as §1

[6] = system: lambsquarters (Chenopodium album); test: Test B pre-/postemergence plant response
Method in brief: as §1

[7] = system: ragweed (common ragweed, Ambrosia elatior); test: Test B pre-/postemergence plant response
Method in brief: as §1

[8] = system: pigweed (Amaranthus retroflexus); test: Test B pre-/postemergence plant response
Method in brief: as §1

[9] = system: ducksalad (Heteranthera limosa); test: Test B flooded paddy test
Method in brief: (§2)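 Each compound is added to standing floodwater (3 cm above soil, maintained) in pots of 2-leaf-stage plants; greenhouse exposure lasts 13–15 d before visual comparison with controls on a 0–100 control scale.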

[10] = system: umbrella sedge (Cyperus difformis); test: Test B flooded paddy test
Method in brief: as §2

[11] = system: barnyardgrass (Echinochloa crus-galli); test: Test B flooded paddy test
Method in brief: as §2

rice (Oryza sativa) = test: Test B flooded paddy test
Method in brief: as §2

[12] = 250 g ai/ha, Preemergence, 0 to 100 scale
[13] = Postemergence, 31 g ai/ha, scale 0 to 100 (0 no effect, 100 complete control)
[14] = Postemergence, 62 g ai/ha, scale 0 (no effect) to 100 (complete control), 13 to 15 days
[15] = Postemergence, 125 g ai/ha, visual rating after 13 to 15 days, scale 0 (no effect) to 100 (complete control)
[16] = Postemergence, 250 g ai/ha, scale 0 to 100
[17] = Preemergence, 31 g ai/ha, scale 0 to 100 (0 no effect, 100 complete control)
[18] = Preemergence, 62 g ai/ha, scale 0 to 100, 0 no effect, 100 complete control
[19] = Preemergence, 125 g ai/ha, 0 to 100 scale
[20] = 250 g ai/ha, flooded paddy test, visual rating on 0 to 100 scale (0 no effect, 100 complete control) after 13 to 15 days
[21] = Flood (flooded paddy test), 62 g ai/ha, scale of 0 to 100 where 0 is no effect and 100 is complete control, 13 to 15 days

## Cc1cccc(-n2c(-c3cccc(Cl)c3)ncc(C(=O)C3=C(O)CCCC3=O)c2=O)c1 [Compound 45]
[1]; [12]
  Plant response rating, Bermudagrass: 100
[1]; [13]
  Plant response rating, Bermudagrass: 80
[1]; [14]
  Plant response rating, Bermudagrass: 85
[1]; [15]
  Plant response rating, Bermudagrass: 95
[1]; [16]
  Bermudagrass plant response rating: 100
[1]; [17]
  Plant response rating, Bermudagrass: 98
[1]; [18]
  Plant response rating, Bermudagrass: 100
[1]; [19]
  Bermudagrass plant response rating: 100
[2]; [12]
  Plant response rating, Johnsongrass: 85
[2]; [14]
  Plant response rating, Johnsongrass: 90
[2]; [15]
  Plant response rating, Johnsongrass: 98
[2]; [16]
  Johnsongrass plant response rating: 100
[2]; [17]
  Plant response rating, Johnsongrass: 0
[2]; [18]
  Plant response rating, Johnsongrass: 45
[2]; [19]
  Johnsongrass plant response rating: 75
Corn (Zea mays); [12]
  Plant response rating, Corn: 0
Corn (Zea mays); [13]
  Plant response rating, Corn: 10
Corn (Zea mays); [14]
  Plant response rating, Corn: 45
Corn (Zea mays); [15]
  Plant response rating, Corn: 60
Corn (Zea mays); [16]
  Corn plant response rating: 80
Corn (Zea mays); [17]
  Plant response rating, Corn: 0
Corn (Zea mays); [18]
  Plant response rating, Corn: 0
Corn (Zea mays); [19]
  Corn plant response rating: 0
Soybean (Glycine max); [12]
  Plant response rating, Soybean: 0
Soybean (Glycine max); [14]
  Plant response rating, Soybean: 95
Soybean (Glycine max); [15]
  Plant response rating, Soybean: 98
Soybean (Glycine max); [17]
  Plant response rating, Soybean: 0
Soybean (Glycine max); [19]
  Soybean plant response rating: 0
[3]; 31 g ai/ha, scale 0 to 100 (0 no effect, 100 complete control)
  Plant response rating, Cocklebur: 10
[3]; 62 g ai/ha, scale 0 (no effect) to 100 (complete control), 13 to 15 days
  Plant response rating, Cocklebur: 50
[3]; 125 g ai/ha, visual rating after 13 to 15 days, scale 0 (no effect) to 100 (complete control)
  Plant response rating, Cocklebur: 70
[3]; 250 g ai/ha, scale 0 to 100
  Cocklebur plant response rating: 95
[4]; [12]
  Plant response rating, Foxtail, Giant: 75
[4]; [13]
  Plant response rating, Foxtail, Giant: 75
[4]; [14]
  Plant response rating, Foxtail, Giant: 90
[4]; [15]
  Plant response rating, Foxtail, Giant: 95
[4]; [16]
  Foxtail, Giant plant response rating: 98
[4]; [17]
  Plant response rating, Foxtail, Giant: 0
[4]; [18]
  Plant response rating, Foxtail, Giant: 0
[4]; [19]
  Foxtail, Giant plant response rating: 45
Wild oat (Avena fatua); [12]
  Plant response rating, Oat, Wild: 5
Wild oat (Avena fatua); [14]
  Plant response rating, Oat, Wild: 55
Wild oat (Avena fatua); [15]
  Plant response rating, Oat, Wild: 60
Wild oat (Avena fatua); [17]
  Plant response rating, Oat, Wild: 0
Wild oat (Avena fatua); [19]
  Oat, Wild plant response rating: 0
Kochia (Kochia scoparia); 62 g ai/ha, 13 to 15 days
  Plant response rating, Kochia: 0
Kochia (Kochia scoparia); 125 g ai/ha, visual rating after 13 to 15 days
  Plant response rating, Kochia: 15
Kochia (Kochia scoparia); 250 g ai/ha, scale 0 to 100
  Kochia plant response rating: 98
[5]; [12]
  Plant response rating, Foxtail, Green: 100
[5]; [13]
  Plant response rating, Foxtail, Green: 50
[5]; [14]
  Plant response rating, Foxtail, Green: 80
[5]; [15]
  Plant response rating, Foxtail, Green: 85
[5]; [16]
  Foxtail, Green plant response rating: 95
[5]; [17]
  Plant response rating, Foxtail, Green: 0
[5]; [18]
  Plant response rating, Foxtail, Green: 80
[5]; [19]
  Foxtail, Green plant response rating: 80
[6]; [12]
  Plant response rating, Lambsquarters: 100
[6]; [14]
  Plant response rating, Lambsquarters: 98
[6]; [15]
  Plant response rating, Lambsquarters: 100
[6]; [16]
  Lambsquarters plant response rating: 100
[6]; [17]
  Plant response rating, Lambsquarters: 100
[6]; [18]
  Plant response rating, Lambsquarters: 100
[6]; [19]
  Lambsquarters plant response rating: 100
[7]; [12]
  Plant response rating, Ragweed: 95
[7]; [14]
  Plant response rating, Ragweed: 85
[7]; [15]
  Plant response rating, Ragweed: 95
[7]; [17]
  Plant response rating, Ragweed: 45
[7]; [19]
  Ragweed plant response rating: 80
[8]; [12]
  Plant response rating, Pigweed: 100
[8]; [14]
  Plant response rating, Pigweed: 98
[8]; [15]
  Plant response rating, Pigweed: 100
[8]; [17]
  Plant response rating, Pigweed: 85
[8]; [19]
  Pigweed plant response rating: 100
[9]; [20]
  Plant response rating, Flood, Ducksalad: 90
[9]; [21]
  Plant response rating, Ducksalad: 20
[10]; [20]
  Plant response rating, Flood, Sedge, Umbrella: 85
[10]; [21]
  Plant response rating, Sedge, Umbrella: 70
[11]; [20]
  Plant response rating, Flood, Barnyardgrass: 30
[11]; [21]
  Plant response rating, Barnyardgrass: 0
Rice (Oryza sativa); [20]
  Plant response rating, Flood, Rice: 20
Rice (Oryza sativa); [21]
  Plant response rating, Rice: 15
